Experimental data from patent US10953109B2, “Application of GPR45 gene” (FUDAN UNIVERSITY, priority 2015, dated 2021).
Entries after “also recorded” stand apart in the source; their conditions may differ.

Legend:
GPR45^PB1/PB1 mice = test: MTII injected daily into third intraventricular of adult GPR45 homozygote obese mice; body weight and fat; format: in vivo
Experimental: (§1) MTII is an agonist of MC3R/MC4R, can simulate a function of a POMC shorn product α-MSH and plays a role of suppressing appetite and promoting energy metabolism. […] When the mutant mice and wild type mice of control groups were injected with equal amounts of normal saline, the body weight was not influenced.

wild type mice = test: MTII injected into third intraventricular of wild type mice; body weight and fat; format: in vivo
Experimental: as §1

GPR45 = test: RNA interference of GPR45 in primary culture cells of hypothalamuses of wild type fetal mice, RT-PCR; format: cell-based; details: 10 pmol siRNA per well, transfection 72 h
Experimental: […]
For detection of POMC expression, primary cell RNA was extracted to perform reverse transcription to obtain cDNA, then real-time quantitative PCR detection was performed, and experiment steps were the same as embodiment 11. […]

[1] = mutant mice, six days after administration, compared with normal saline control
[2] = wild type mice injected with MTII, six days

| Substance | body weight after three days after MTII was injected (GPR45^PB1/PB1 mice; GPR45^PB1/PB1 mice, three days) | fat content (FIG. 24B) (GPR45^PB1/PB1 mice; adult male GPR45 homozygote mice) | body weight (FIG. 24A) (GPR45^PB1/PB1 mice; adult male GPR45 homozygote mice, after six days) | increase of the body weight (GPR45^PB1/PB1 mice; daily injection, adult obese mice) | obesity caused by GPR45 mutations (GPR45^PB1/PB1 mice; intraventricular injection) | body weight decreased relative to the body weight before injection (GPR45^PB1/PB1 mice; mutant mice, six days after MTII was injected) | weight of gonadal white adipose tissues decreased (GPR45^PB1/PB1 mice; [1]) | weight of interscapular brown adipose tissues decreased (GPR45^PB1/PB1 mice; [1]) | weight of retroperitoneal white adipose tissues decreased (GPR45^PB1/PB1 mice; [1]) | weight of gonadal white adipose tissues decreased (wild type mice; [2]) | weight of interscapular brown adipose tissues increased (wild type mice; [2]) | weight of retroperitoneal white adipose tissues decreased (wild type mice; [2]) | body weight decreased relative to the body weight before injection (wild type mice; wild type mice, six days after MTII was injected) | expression amount of GPR45 decreased (GPR45) | expression amount of POMC decreased (GPR45) |
| --- | --- | --- | --- | --- | --- | --- | --- | --- | --- | --- | --- | --- | --- | --- | --- |
| melanotan-2 [MTII] | reduced to the level of the body weight of the wild type mice | fat content decreases | body weight decreases | could be suppressed | obesity is suppressed; also recorded: effectively reverses the obesity | 13.6% | 48.5% | 50.4% | 66.7% | 44.1% | 0.4% | 50.9% | 1.8% | – | – |
| GPR45-siRNA: siRNA, sense 5′-CCGACAUCAUGCUGUCUUUAUTT-3′ (SEQ ID NO. 29), antisense 5′-AUAAAGACAGCAUGAUGUCGGTT-3′ (SEQ ID NO. 30) (chemistry not given here) | – | – | – | – | – | – | – | – | – | – | – | – | – | 53.4% | 30.7% |
